Measurements taken from patent US10266482B2, “Long-term memory inducing agent” (NATIONAL UNIVERSITY CORPORATION TOKYO MEDICAL AND DENTAL …, priority 2017, dated 2019).

How the values were obtained:
[1] = system: young crickets; assay: Olfactory associative learning test in young crickets (single-time training, memory a day after); format: in vivo, Gryllus bimaculatus
Procedure: Male crickets about one week old (young) or three week old (aged) following molting into adult forms were used. Each of the crickets was placed into a 100 ml beaker three days before the experiment, and deprived of water for 2-3 days to enhance the desire of taking water. As the feed, about 10 pieces of insect feed were placed into the beaker.
A 1-ml syringe was used for smell and reward associative conditioning upon learning/training. The syringe contained water as the reward while a piece of paper (3 mm×3 mm) perfumed with peppermint essence was pierced into the needle to about 1 cm from the tip thereof. In this learning/training, the filter paper on the needle was brought near the antennae of the cricket to allow it to smell for 3 seconds and then a drop of water was put out from the tip of the needle and applied to the mouth of the cricket. When the associative conditioning was conducted for four times, the conditionings were conducted at intervals of 5 minutes.
Smell preference was examined by placing each cricket into a test arena. The arena consisted of a “standby chamber” and a “test chamber”. The floor of the “test chamber” had two holes each with a diameter of 4 cm which were communicated with two smell sources. The smell source was a plastic pot containing filter paper perfumed with essence of a smell (peppermint or vanilla) and covered with a gauze lid. In the preference test, each cricket was placed into the test chamber and allowed to walk freely for 4 minutes to search for the two smell sources. Two minutes after the start of the test, a rotary board having the smell sources was rotated to reverse the positions of the vanilla and the peppermint smells. During the test, the time the cricket spent placing its mouth to the gauze of the smell source was measured as a visiting time to the smell source, and the ratio of the visiting times of the two types of smells (PI value: preference index) was calculated according to the following formula to assess the relative preference to the mint smell. PI value=Tp/(Tp+Tv)×100 • Tp: Searching time for smell associated with the reward (peppermint) • Tv: Searching time for smell not associated with the reward (vanilla)
If the preferences for the two smells are equivalent, PI will be 50. Since crickets inherently prefer vanilla smell over peppermint smell, an average PI value prior to the learning/training is usually 25-35, The preference test was conducted before and after the learning/training to examine whether preference for the smell changes due to the learning/training.
As drugs, melatonin, N(1)-acetyl-N(2)-formyl-5-methoxykynuramine (AFMK), N(1)-acetyl-5-methoxykynuramine (AMK), 6-Hydroxymelatonin (6-HM), L-kynurenine, kynuramine, 8-Bromoguanoine 3′,5′-cyclic monophosphate sodium salt (8 br-cGMP) and cycloheximide (CHX) were used. Melatonin, 6-HM, kynurenine, kynuramine and 8br-cGMP were purchased from SIGMA Aldrich, AFMK was purchased from Cayman Chemical, AMK was purchased from Toronto Research Chemicals and CHX was purchased from Wako Pure Chemical Industries. The drugs other than 8br-cGMP and CHX were first dissolved in ethanol and then diluted with physiological saline for crickets to the respective concentrations. In the administration experiment, 3 μl was administered using a 10-μl syringe to the brain via an aperture opened through a simple eye of the head.
PI values were tested before the training and a day after the training in the same group by a Wilcoxon's-test.

[2] = system: young crickets; assay: as above; format: in vivo, Gryllus bimaculatus; settings: drinking 10 μl of aqueous solution (5 μM) 5 minutes after single-time training
[3] = system: aged crickets; assay: Olfactory associative learning test in aged crickets (age-related memory disorder, training four times); format: in vivo, Gryllus bimaculatus; settings: 5 μM, 3 μl
Procedure: Male crickets about one week old (young) or three week old (aged) following molting into adult forms were used. Each of the crickets was placed into a 100 ml beaker three days before the experiment, and deprived of water for 2-3 days to enhance the desire of taking water. As the feed, about 10 pieces of insect feed were placed into the beaker. A 1-ml syringe was used for smell and reward associative conditioning upon learning/training. The syringe contained water as the reward while a piece of paper (3 mm×3 mm) perfumed with peppermint essence was pierced into the needle to about 1 cm from the tip thereof. In this learning/training, the filter paper on the needle was brought near the antennae of the cricket to allow it to smell for 3 seconds and then a drop of water was put out from the tip of the needle and applied to the mouth of the cricket. When the associative conditioning was conducted for four times, the conditionings were conducted at intervals of 5 minutes. Smell preference was examined by placing each cricket into a test arena. The arena consisted of a “standby chamber” and a “test chamber”. […] The smell source was a plastic pot containing filter paper perfumed with essence of a smell (peppermint or vanilla) and covered with a gauze lid. In the preference test, each cricket was placed into the test chamber and allowed to walk freely for 4 minutes to search for the two smell sources. Two minutes after the start of the test, a rotary board having the smell sources was rotated to reverse the positions of the vanilla and the peppermint smells. During the test, the time the cricket spent placing its mouth to the gauze of the smell source was measured as a visiting time to the smell source, and the ratio of the visiting times of the two types of smells (PI value: preference index) was calculated according to the following formula to assess the relative preference to the mint smell. PI value=Tp/(Tp+Tv)×100 • Tp: Searching time for smell associated with the reward (peppermint) • Tv: Searching time for smell not associated with the reward (vanilla) If the preferences for the two smells are equivalent, PI will be 50. Since crickets inherently prefer vanilla smell over peppermint smell, an average PI value prior to the learning/training is usually 25-35, The preference test was conducted before and after the learning/training to examine whether preference for the smell changes due to the learning/training. […] Melatonin, 6-HM, kynurenine, kynuramine and 8br-cGMP were purchased from SIGMA Aldrich, AFMK was purchased from Cayman Chemical, AMK was purchased from Toronto Research Chemicals and CHX was purchased from Wako Pure Chemical Industries. The drugs other than 8br-cGMP and CHX were first dissolved in ethanol and then diluted with physiological saline for crickets to the respective concentrations. In the administration experiment, 3 μl was administered using a 10-μl syringe to the brain via an aperture opened through a simple eye of the head. PI values were tested before the training and a day after the training in the same group by a Wilcoxon's-test.

[4] = system: young mice; assay: Object recognition test for young mice (melatonin and melatonin metabolites); format: in vivo, ICR mice; settings: i.p. 60 minutes after one one-minute acquisition trial, test trial 24 hours later
Procedure: Two-month-old male ICR mice (young mice) were used. The rearing room was kept at 22° C. at cycles of 12 hours of light period/12 hours of dark period, and feed and drinking water were given freely. All of the experiments were conducted during the latter 6 hours of the light period.
Melatonin (MEL), N(1)-acetyl-N(2)-formyl-5-methoxykynuramine (AFMK), and N(1)-acetyl-5-methoxykynuramine (AMK) were used as drugs. Melatonin was purchased from SIGMA Aldrich, AFMK was purchased from Cayman Chemical, and AMK was purchased from Toronto Research Chemicals. AFMK and AMK were diluted with physiological saline and intraperitoneally administered at a dosage of 0.01 mg/kg bw, 0.1 mg/kg bw or 1.0 mg/kg bw. MEL was diluted with physiological saline containing 1 vol % ethanol, and intraperitoneally administered at a dosage of 1.0 mg/kg bw or 5.0 mg/kg bw. As controls, physiological saline or physiological saline containing 1 vol % ethanol was intraperitoneally administered.
Test was conducted in the same manner as “5.3 Object recognition test” in Example 5.
Processing was conducted in the same manner as “5.4 Statistical processing” in Example 5.

COc1ccc2[nH]cc(CCNC(C)=O)c2c1 [melatonin, reference compound]
long-term memory formation a day after the training ([1]; 0.2 μM, 3 μl to the brain, 20 minutes after single-time training): not | long-term memory formation a day after the training ([1]; 1 μM, 3 μl to the brain, 20 minutes after single-time training): not | PI value for mint a day after the training versus PI value before the training ([1]; 5 μM to the brain 20 minutes before single-time training): significantly higher | long-term memory formation a day after the training ([1]; 5 μM, 3 μl to the brain, 20 minutes after single-time training): long-term memories were formed | long-term memory formation a day after the training ([1]; 5 μM, 3 μl, administered between 20 minutes before and 20 minutes after single-time training): long-term memory was formed | long-term memory formation a day after the training ([1]; 25 μM, 3 μl to the brain, 20 minutes after single-time training): formed | administration concentration sufficient to form long-term memory ([1]; 3 μl to the brain 20 minutes after single-time training): 5 µM | amount in 1 g of the food per kg of body weight ([1]; based on the result from ingesting 5 μM for 10 μl): ≥ 11.6 µg | PI value for mint a day after the training versus PI value before the training ([1]; melatonin 5 μM simultaneously with cycloheximide (10 mM), to the brain 20 minutes before single-time training): no significant difference | long-term memory formation a day after the training by oral administration [2]: long-term memory was formed | improvement in an age-related memory disorder ([3]; 20 minutes after training for four times): improvement in an age-related memory disorder was observed | long-term memory formation a day after the training (improvement of age-related memory disorder) ([3]; 20 minutes before training for four times): a long-term memory was formed | concentration at which the effect of inducing long-term memories was found [4]: 5.0 mg/kg bw
